In ChEMBL document CHEMBL1140515, “Virtual screening and bioassay study of novel inhibitors for dengue virus mRNA cap (nucleoside-2'O)-methyltransferase” (Bioorg Med Chem, 2007):

What was measured:
Dengue virus = assay: Inhibition of Dengue virus NS5MTase assessed as methylation of 7MeGpppAC5 at 100 uM
[1] = Inhibition of Dengue virus NS5MTase assessed as methylation of 7MeGpppAC5

## CC[C@@H](C)[C@H](NS(=O)(=O)c1ccc(C)cc1)C(=O)Oc1cc2oc(=O)cc(-c3ccccc3)c2cc1Cl
Dengue virus
  inhibition: 5%

## C[n+]1cn(CCCCCCn2cc([C@@H](O)c3ccccc3)[n+](C)c2)cc1[C@@H](O)c1ccccc1
Dengue virus
  inhibition: 5%

## N[C@H](C(=O)O)[C@@H](O)c1ccc(OCc2ccccc2)c(OCc2ccccc2)c1
Dengue virus
  inhibition: 5%

## O=C(N[C@@H](Cc1ccccc1)C(=O)O)c1ccc(C(=O)N[C@H](Cc2ccccc2)C(=O)O)cc1
Dengue virus
  inhibition: 5%

## CCOC(=O)Cn1c(=O)n(C[C@H]2CC[C@H](C(=O)NCCc3ccccc3)CC2)c(=O)c2ccccc21
Dengue virus
  inhibition: 5%

## Cc1cc2oc(=O)cc(COC(=O)CN3C(=O)N[C@]4(C[C@H](C)CC(C)(C)C4)C3=O)c2cc1C(C)C
Dengue virus
  inhibition: 5%

## Cc1ccc(C23CC4CC(CC(NC(=O)N[C@@H](Cc5ccccc5)C(=O)O)(C4)C2)C3)cc1
[1]
  IC50: 60.5 µM
Dengue virus
  inhibition: 75%

## CC[C@@H](C)[C@H](NS(=O)(=O)c1ccc(C)cc1)C(=O)Oc1ccc2c(c1)oc(=O)c1cc(OC)ccc12
Dengue virus
  inhibition: 5%

## O=C(Oc1cccc(NC2=NS(=O)(=O)c3ccccc32)c1)c1ccc(S(=O)(=O)N2CCCCC2)cc1
Dengue virus
  inhibition: 5%

## Cc1ccc(S(=O)(=O)N2CCCCC2)cc1NC(=O)COC(=O)CN1C(=O)N[C@@]2(C[C@H](C)CC(C)(C)C2)C1=O
Dengue virus
  inhibition: 5%

## CC[C@@H](C)[C@H](NS(=O)(=O)c1ccc(C)cc1)C(=O)Oc1ccc2c(-c3ccc(OC)cc3)cc(=O)oc2c1
Dengue virus
  inhibition: 5%

## CN(C)S(=O)(=O)c1ccc(Cl)c(NC(=O)COC(=O)CNC(=O)CC23CC4CC(CC(C4)C2)C3)c1
Dengue virus
  inhibition: 5%

## O=C(O)[C@H]1CCCC[C@@H]1C(=O)N[C@H]1CCCC[C@@H]1NC(=O)[C@@H]1CCCC[C@H]1C(=O)O
Dengue virus
  inhibition: 5%

## COC(=O)[C@@H](Cc1ccccc1)NC(=O)NC12CC3CC(C1)CC(c1ccc(C)cc1)(C3)C2
Dengue virus
  inhibition: 5%

## CC(C)[C@@H](N)C(=O)NC[C@H]1CC[C@@H](C(=O)N[C@@H](Cc2ccccc2)C(=O)O)CC1
Dengue virus
  inhibition: 5%
